This is an account of results in patent publication US11111222B2, “Hydroxyeicosatrienoic acid compounds and their use as therapeutic agents” (THE REGENTS OF THE UNIVERSITY OF MICHIGAN, priority 2016, dated 2021).

Data set [1] deals with washed platelets from WT or 12-LOX−/− mice. The experiment in a line: Platelet aggregation, washed murine platelets (lumi-aggregometer). The data set is classed as cell-based, mouse. As to conditions: 10 min. As for the experimental part:
The 12-LOX null C57BL/6 (12-LOX^−/−) mice were generated using homozygous breeding pairs and wild-type (WT) C57BL/6 ([…]) mice were purchased (Jackson Laboratory). […] Mouse blood was diluted with equal volumes of Tyrode's buffer (10 mM HEPES, 11.9 mM sodium bicarbonate, 127.2 mM sodium chloride, 5 mM potassium chloride, 0.4 mM sodium phosphate monobasic, 1 mM magnesium chloride, and 5 mM D-glucose) and centrifuged at 200×g. Platelet-rich-plasma (PRP) was transferred to a tube containing 10× acid citrate dextrose solution (ACD) (2.5% sodium citrate, 1.5% citric acid, and 2% D-glucose) and apyrase (0.02 U/mL), and centrifuged at 2000×g. Platelet count was adjusted to 3×10^8 platelets/mL with Tyrode's buffer for all studies.
A lumi-aggregometer (Chrono-log model 700D) was used to measure platelet aggregation under stirring conditions (1100 rpm) at 37° C. Prior to agonist stimulation platelets were incubated with a preselected PUFA or oxylipin for 10 minutes.

The test system of data set [2] is adenylyl cyclase. The data set is described as follows: LC/MS quantification of cAMP in washed human platelets. The data set is classed as cell-based. As to conditions: 25 μM, 1 min; platelets pre-treated with 10 μM IBMX; vs DMSO. The protocol:
Washed human platelets were treated with the specific ligand or vehicle control for 1 min at room temperature, and quenched with an equal volume of ice-cold 2× platelet lysis buffer containing protease and phosphatase inhibitors. Lysed platelet samples were centrifuged at 14,000 g for 7 min at 4° C. to pellet cytoskeleton and the supernatant was stored in −80° C.
To prepare the sample for LC/MS injection, 200 μL of the supernatant was spiked with 400 pg of adenosine-3′,5′-cyclic-13C5 monophosphate (^13C5-cAMP) (Toronto Research Chemicals, Inc.), an internal standard, and 600 μL of LC/MS grade acetonitrile (Fisher Scientific). The sample was briefly vortexed and centrifuged at 14,000 rpm for 10 min at 4° C. The supernatants were then air dried in a SpeedVac and reconstituted in 200 μL of LC/MS grade water and centrifuged at 10,000 rpm for 5 min at 4° C. and used for LC/MS injection.
The separation and detection of cAMP was performed on a Waters ACQUITY UPLC system equipped with a Xevo Triple Quadrupole Mass Spectrometer (TQ-S MS/MS). […]
The mass spectrometer was operated with an ESI source in positive mode. […] Cyclic AMP (cAMP) was quantitated using ^13C5-cAMP as the internal standard. […]

Data set [3] relates to VASP (serine 157). The data set is described as follows: VASP phosphorylation in human platelets. The data set is classed as cell-based. As to conditions: 1 min. As for the experimental part: Washed platelets were treated with PUFA or PUFA metabolite (12(S)-HETrE or compound IIc) for one minute, then directly lysed in 5× Laemmeli sample buffer (1.5 M Tris-HCl, pH 6.8, glycerol, 5% β-mercaptoethanol, 10% sodium dodecyl sulfate (SDS), and 1% bromophenol blue). The samples were boiled for five minutes and then run on a 10% SDS-PAGE gel. The levels of total and phospho-VASP (serine 157) were quantified by Western Blot using an Odyssey imaging system (LI-CoR).

Data set [4] deals with Gαs. The experiment in a line: [35S]GTPγS binding to immunoprecipitated Gαs, platelet membranes. The data set is classed as biochemical. As to conditions: human platelet membranes, vs DMSO. The protocol:
PRP was isolated from whole blood as described above and then incubated with 1 mM aspirin for 1 hour at 37° C. Platelets were pelleted at 2000 g for 10 min in the presence of 10×ACD and apyrase. The pelleted platelets were washed with Tyrode's and centrifuged at 2000×g with 10×ACD for 10 min at room temperature. The platelets were flash frozen with liquid nitrogen and then resuspended in cold detergent-free TME buffer (50 mM Tris-HCl, pH 7.5, 20 mM MgCl2, 2 mM EDTA, and 100 mM NaCl) with 1 μM GDP and protease and phosphatase inhibitors to lyse the platelets. The lysed platelets were centrifuged at 1500 g at 4° C. for 5 min. The supernatant was collected and centrifuged at 100,000×g for 30 min at 4° C. The pelleted membranes were resuspended in TME buffer with 1 μM GDP and stored at −80° C. prior to use. Fatty acid metabolites, agonists, or DMSO and [^35S]GTPγS (10 nM) were added to platelet membranes (60 μg/reaction) on ice, and the tubes were immediately transferred to a 30° C. water bath shaker for 20 min. The reaction was terminated by the addition of ice-cold IP buffer (50 mM Tris-HCl, pH 7.5, 20 mM MgCl2, 150 mM NaCl, 0.5% Nonidet P-40, 0.33% aprotinin, 0.1 mM GDP, and 0.1 mM GTP). The samples were pre-cleared with Protein A agarose beads and normal rabbit IgG for 30 min on a nutator at 4° C. and then aliquoted equally into two tubes containing either normal rabbit IgG or a Gs antibody that had been conjugated to Protein A agarose beads. The samples were incubated on a nutator for 1 hr at 4° C. and washed 4 times with IP buffer and 1 time in TME buffer. The samples were boiled in 0.5% SDS for 30 sec, and the supernatants were collected following brief centrifugation. The supernatants were analyzed in 8 mL of scintillation fluid. The background counts for the normal rabbit IgG (50-200 cpm) for each sample were subtracted from the anti-Gs immunoprecipitated samples prior to analyzing the data.

In data set [5] the test system is washed human platelets. The experiment in a line: Human platelet aggregation after pre-treatment with adenylyl cyclase inhibitor SQ 22536. It is filed as cell-based. As to conditions: platelets pre-treated with SQ 22536 (25 μM, 20 min); iloprost 0.2 to 0.4 nM, 1 min; EC80 PAR4-AP. As for the experimental part:
Blood from healthy donors was collected into vacutainers containing buffered sodium citrate, and platelets were isolated by serial centrifugation as described above for mouse platelets. The platelets were resuspended in Tyrode's buffer at 3×10^8 platelets/mL, unless otherwise specified.
A lumi-aggregometer (Chrono-log model 700D) was used to measure platelet aggregation under stirring conditions (1100 rpm) at 37° C. […]

A short description of data set [6]: Tail bleeding assay. As to conditions: heparin-treated mice; data not shown. The data set is classed as in vivo, mouse. As for the experimental part:
Mice were anesthetized with ketamine/xyzaline and placed on a heating pad in prone position, the tip of the tail (5 mm) was excised with a sterile scalpel, and the tails were immediately immersed into isotonic saline solution (0.9%) warmed to 37° C. Bleeding time was assessed until cessation of blood flow from the tail for 1 minute.

[7] abbreviates: 12-LOX−/− mouse platelets, 10 μM PUFA, EC80 PAR4-AP (200 μM) or collagen (2 or 5 μg/mL), vs vehicle.
The mark [8] stands for this setting: WT mouse platelets, 10 μM PUFA, EC80 PAR4-AP (100 μM) or collagen (5 μg/mL), vs DMSO.
The mark [9] stands for this setting: 12-LOX−/− mouse platelets, 25 μM 12-LOX oxylipin, EC80 PAR4-AP (200 μM) or collagen (2 or 5 μg/mL), vs vehicle.
Where [10] appears, read: WT mouse platelets, 25 μM 12-LOX oxylipin, EC80 PAR4-AP (100 μM) or collagen (5 μg/mL), vs vehicle.

As to `CCCCC/C=C\C/C=C\C/C=C\C/C=C\CCCC(=O)O` [AA], the platelet aggregation result in data set [1] (setting [7]) and in data set [1] (setting [8]) was “no inhibitory effect” throughout.

For `CC/C=C\C/C=C\CC(O)/C=C/C=C\C/C=C\CCCC(=O)O` (stereo not drawn) [Compound 12-HEPE, 12-hydroxy-5Z, 8Z, 10E, 14Z, 17Z-eicosapentaenoic acid], the platelet aggregation entry in data set [1] (setting [9]) and in data set [1] (setting [10]) was “did not inhibit collagen- or PAR4-AP-induced aggregation” throughout.

`CCCCC/C=C\CC(O)/C=C/C=C\C/C=C\CCCC(=O)O` (stereo not drawn) [Compound 12-HETE, 12-hydroxy-5Z,8Z,10E,14Z-eicosatetraenoic]: the platelet aggregation entry in data set [1] (setting [9]) and in data set [1] (setting [10]) was “no decrease in collagen- or PAR4-AP-mediated platelet aggregation” in each case.

Take `CCCCC/C=C\CC(/C=C/C=C\CCCCCCC(=O)O)OO` (stereo not drawn) [Compound 12-HpETrE]: in data set [2], the “level of intracellular cAMP” value is given as “significant increase in the level of intracellular cAMP”. In data set [3] (25 μM, vs DMSO), the “VASP phosphorylation (S157)” value is “enhanced VASP phosphorylation”. In addition, the “[35S]GTPγS binding to immunoprecipitated Gαs” value in data set [4] (25 μM) was “significant increase in [^35S]GTPγS binding”.

Turning to `CCCCC/C=C\C/C=C\C/C=C\CCCCCSc1n[nH]c(=O)[nH]1` [Compound IIc, 5-(((6Z,9Z,12Z)-octadeca-6,9,12-trien-1-yl)thio)-2,4-dihydro-3H-1,2,4-triazol-3-one], the “VASP phosphorylation (S157)” value in data set [3] (compound IIc, concentrations not given) is given as “dose-dependent phosphorylation of VASP”.

With `CCCCC/C=C\C/C=C\CCCCCCCC(=O)O` [LA, linoleic acid], the platelet aggregation entry in data set [1] (setting [7]) and in data set [1] (setting [8]) was “no inhibitory effect” throughout.

On to `CC#CCC(C)[C@H](O)/C=C/[C@@H]1[C@H]2C/C(=C/CCCC(=O)O)C[C@H]2C[C@H]1O` (stereo partly drawn) [iloprost], for which the PAR4-AP-mediated platelet aggregation entry in data set [5] is recorded as “unable to inhibit PAR4-AP-mediated platelet aggregation”. Besides, the “[35S]GTPγS binding to immunoprecipitated Gαs” value in data set [4] (iloprost 10 μM) was “significant increase in [^35S]GTPγS binding”.

On to heparin, for which the bleeding time entry in data set [6] is on record as “severe bleeding diathesis”.
